Laboratory results as given in PubChem BioAssay (NCI).
Where “and” joins values, the source holds several entries; their conditions need not be identical. Identical values can stand only once.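 Protocol summary: plate cells (96-well), add compound at 5 concentrations, incubate 48 h, interpolate endpoints linearly. The concentration for 50% growth inhibition is given as GI50. TGI: total growth inhibition.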

Assays:
Test in all cases: NCI tumour cell line growth inhibition, 48 h
NCI-H460 lung = system: NCI-H460 lung
SR leukemia = system: SR leukemia
SW-620 colon = system: SW-620 colon
SF-295 CNS = system: SF-295 CNS
U251 CNS = system: U251 CNS
SK-MEL-5 melanoma = system: SK-MEL-5 melanoma
MCF7 breast = system: MCF7 breast
CAKI-1 renal = system: CAKI-1 renal

| SMILES | TGI (NCI-H460 lung) | TGI (SR leukemia) | TGI (SW-620 colon) | TGI (SF-295 CNS) | TGI (U251 CNS) | TGI (SK-MEL-5 melanoma) | GI50 (NCI-H460 lung) | GI50 (SR leukemia) | GI50 (SW-620 colon) | GI50 (SF-295 CNS) | GI50 (U251 CNS) | GI50 (MCF7 breast) | TGI (MCF7 breast) | GI50 (SK-MEL-5 melanoma) | GI50 (CAKI-1 renal) | TGI (CAKI-1 renal) |
| --- | --- | --- | --- | --- | --- | --- | --- | --- | --- | --- | --- | --- | --- | --- | --- | --- |
| COc1ccc(-c2nc3ccccc3s2)cc1OC | 59.8 µM | > 100 µM | > 100 µM | 88.2 µM | > 100 µM | 39.1 µM |  |  |  |  |  |  |  |  |  |  |
| Nc1cc2c3c(cccc3c1)C(=O)N(CCN1CCCC1)C2=O | > 24.5 µM | > 22.4 µM | > 53.8 µM | 11.2 µM | > 100 µM | 4.01 µM | 0.666 µM | 0.979 µM | 2.39 µM | 2.59 µM | 3.4 µM | 1.18 µM | 35.6 µM | 1.65 µM | 1.43 µM | 5.83 µM |
| c1cnc2c(c1)-n1cccc1C1(CCCCC1)NN2 | > 100 µM | > 100 µM | > 100 µM | > 100 µM |  | > 100 µM |  |  |  |  |  |  |  |  |  | > 100 µM |
| CCCC(=O)O[C@]1(C)CC[C@@H]2[C@H]3[C@@H]1[C@@H]1C[C@@](C)(O)[C@H](OC)CC[C@](C)(OC(=O)[C@@H]2C)[C@H]3O1 | > 100 µM | 28.1 µM | > 100 µM | > 100 µM | > 100 µM | > 100 µM | 56.3 µM | 14.9 µM | 34.4 µM | 30 µM | 56.9 µM | 18.5 µM | 33.7 µM | 34.9 µM | 18.6 µM | 39.8 µM |
| Clc1ccccc1C(Nc1cnccn1)Nc1cnccn1 | > 100 µM |  | > 100 µM | > 100 µM | > 100 µM | > 100 µM |  |  |  |  |  |  | > 100 µM |  |  | > 100 µM |
| Oc1ccc(Cl)cc1C=Nc1cnc2ccccc2c1 | > 100 µM | > 100 µM | > 100 µM | > 100 µM | > 70.6 µM | > 90 µM |  |  |  |  |  |  | > 100 µM |  |  | > 100 µM |
| C=C1C(=O)O[C@@H]2/C=C(/C)[C@@H](OC(C)=O)C/C=C(\C)C(O)[C@@H](OC(=O)/C(C)=C\C)C12 (stereo partly specified) | > 100 µM | 55.6 µM | 30.1 µM | > 100 µM | > 100 µM | 32.1 µM |  |  |  |  |  |  | > 100 µM |  |  | 54.4 µM |
| CN1CCN(C2=NC(=O)/C(=C\c3ccc(N(C)C)cc3)S2)CC1 | > 100 µM | > 100 µM | > 100 µM | > 100 µM | > 100 µM | > 100 µM | > 100 µM | 57.4 µM | > 100 µM | > 100 µM | > 100 µM | > 100 µM | > 100 µM | > 100 µM | > 100 µM | > 100 µM |
| COc1ccc(-c2ccc(OC)c(OC)c2OC)cc1 | > 48 µM | > 100 µM | > 100 µM | > 100 µM | > 100 µM | > 45.2 µM | 2.7 µM | 0.572 µM | 0.528 µM | 1.7 µM | 2.01 µM | 1.77 µM | > 100 µM | 2.68 µM | 1.77 µM | > 100 µM |
| CC1CCC2C(C)C(=O)OC2C2(C)C(=O)C=CC12 (stereo unspecified) | > 10 µM | > 10 µM | > 10 µM | > 10 µM | > 10 µM | > 10 µM |  |  |  |  |  |  | > 10 µM |  |  | > 10 µM |
| OCC(O)C(O)C(O)C(/C=N\Nc1ncnc2c(Br)cc(Br)cc12)=N/Nc1ncnc2c(Br)cc(Br)cc12 (stereo unspecified) |  | 17.3 µM and > 100 µM | > 100 µM |  |  | 16.4 µM and 18.7 µM |  |  |  | 2.46 µM and 10.9 µM |  |  | 37.4 µM and > 100 µM |  |  | 26.7 µM and > 100 µM |
| Cn1c(COC(=O)NCCc2ccccn2)nc2c(N3CCOCC3)nc(Cl)nc21 | 3.63 µM |  | 2.98 µM | 19.8 µM | 3.34 µM | 3.29 µM | 1.62 µM |  | 1.28 µM | 6.73 µM | 1.63 µM | 0.946 µM | 2.95 µM | 1.74 µM | 0.974 µM | 2.16 µM |
| C/C(=N/NC(=S)Nc1ccccc1)c1nc2ccc(Cl)cc2[nH]1 | 0.522 µM | 1.23 µM | 0.99 µM |  | 1.02 µM | 0.457 µM | 0.0351 µM | 0.0881 µM | 0.208 µM |  | 0.0996 µM |  |  | 0.0989 µM |  |  |
| CCOc1c(Br)cc(Br)cc1C=C(C#N)C#N | > 10 µM | > 10 µM | > 10 µM | > 10 µM | > 10 µM | > 10 µM |  |  |  |  |  |  | > 10 µM |  |  |  |
| Cn1c(COC(=O)NCCn2ccnc2)nc2c(N3CCOCC3)nc(-c3ccccc3)nc21 | 2.91 µM |  | 0.58 µM | 2.89 µM | 2.87 µM | 2.81 µM | 1.42 µM |  | 0.226 µM | 1.54 µM | 1.35 µM | 0.356 µM | 1.89 µM | 1.46 µM | 0.343 µM | 1.55 µM |
| COc1c2ccoc2nc2c(OC)c(OCC(O)C(C)(C)O)ccc12 (stereo unspecified) | > 100 µM |  | > 100 µM | > 100 µM | > 100 µM | > 100 µM |  |  |  |  |  |  | > 100 µM |  |  | > 100 µM |
| COc1cc2c(/C=C3\C(=O)Nc4ccccc43)c[nH]c2cc1C | > 100 µM |  | 39.8 µM | 1.65 µM | 4.82 µM | 1.89 µM | 0.0761 µM |  | < 0.0209 µM | 0.227 µM | 0.94 µM |  | > 82.1 µM | < 0.015 µM | 0.409 µM | 13.3 µM |
| COc1cc(C2CC(c3ccc(Nc4nc(NCCO)nc(NCCO)n4)cc3)=NN2c2cc(Cl)cc(Cl)c2)cc(OC)c1OC (stereo unspecified) | 3.8 µM | 4.11 µM | 3.79 µM | 2.87 µM | 2.81 µM | 3.34 µM | 1.77 µM | 1.29 µM | 1.8 µM | 1.16 µM | 1.25 µM | 1.26 µM | 2.94 µM | 1.7 µM |  |  |
| CCN(CC)C(=S)SSC(C)C |  |  | 14 µM | 49 µM | 32.1 µM | 24.2 µM |  |  | 3.01 µM | 17.9 µM | 13.8 µM |  |  | 11.6 µM | 5.99 µM | 19.2 µM |
| O=C(Nc1ccc(Cl)cc1C(F)(F)F)C(=O)Nn1c(=S)[nH]c2ccccc2c1=O | > 100 µM |  | > 100 µM | > 100 µM | > 100 µM | > 100 µM |  |  |  |  |  |  | > 100 µM |  |  | > 100 µM |
| NCCO/C=C/C(N)C(=O)O (stereo unspecified) | > 100 µM |  | > 100 µM | > 100 µM | > 100 µM | > 100 µM |  |  |  |  |  |  | > 100 µM |  |  | > 100 µM |
